Target: Alpha-synuclein (Homo sapiens, UniProt P37840)
Assay: biochemical

c1ccc2c(c1)Nc1ccccc1S2 [PHENOTHIAZINE]
IC50: 26 µM
Ki: > 0.5 µM
